Results from ChEMBL document CHEMBL3779869, “Synthesis, identification, and biological activity of metabolites of two novel selective S1P1 agonists” (Bioorg Med Chem, 2016).
The source made the active and inactive calls. The rule behind the calls is not given here.

Columns and labels:
[1] = target: Sphingosine 1-phosphate receptor 1 (Homo sapiens, UniProt P21453); test: Agonist activity at S1P1 receptor (unknown origin) expressed in CHO cells incubated for 2 hrs by HTRF-IP1 assay; type: cell-based
Chain of Sphingosine 1-phosphate receptor 1 (P21453 whole entry): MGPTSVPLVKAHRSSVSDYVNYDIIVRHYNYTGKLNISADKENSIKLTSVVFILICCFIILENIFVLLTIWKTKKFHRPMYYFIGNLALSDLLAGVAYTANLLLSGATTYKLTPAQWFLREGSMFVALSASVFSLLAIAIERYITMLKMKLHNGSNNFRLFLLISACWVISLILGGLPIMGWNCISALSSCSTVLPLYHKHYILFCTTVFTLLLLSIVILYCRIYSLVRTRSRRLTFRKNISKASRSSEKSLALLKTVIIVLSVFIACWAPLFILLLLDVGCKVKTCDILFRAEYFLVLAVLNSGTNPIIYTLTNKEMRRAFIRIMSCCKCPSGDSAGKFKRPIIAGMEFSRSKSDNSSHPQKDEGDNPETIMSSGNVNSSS

[2] = target: Sphingosine 1-phosphate receptor 3 (Homo sapiens, UniProt Q99500); test: Agonist activity at S1P3 receptor (unknown origin) expressed in CHO cells incubated for 2 hrs by HTRF-IP1 assay; type: cell-based
Chain of Sphingosine 1-phosphate receptor 3 (Q99500 whole entry): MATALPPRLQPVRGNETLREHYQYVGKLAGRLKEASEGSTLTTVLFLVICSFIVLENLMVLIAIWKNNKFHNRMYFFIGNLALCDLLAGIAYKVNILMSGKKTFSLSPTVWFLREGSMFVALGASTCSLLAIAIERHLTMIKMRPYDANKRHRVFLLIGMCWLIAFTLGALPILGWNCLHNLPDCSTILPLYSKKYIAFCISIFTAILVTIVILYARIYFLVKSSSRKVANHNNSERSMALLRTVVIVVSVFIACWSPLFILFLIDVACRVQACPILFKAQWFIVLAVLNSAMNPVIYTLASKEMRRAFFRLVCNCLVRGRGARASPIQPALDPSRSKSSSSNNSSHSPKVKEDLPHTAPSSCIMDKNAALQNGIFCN

Blood [3] = test: Drug level in Sprague-Dawley rat blood assessed as compound formation treated with SYL927 at 3 mg/kg, po measured at 0.08 to 48 hrs by LC-MS/MS analysis; type: ADME, organism-based; settings: in vivo
Blood [4] = test: Retention time of compound in Sprague-Dawley rat blood treated with SYL927 at 3 mg/kg, po by LC-MS/MS analysis; type: ADME, organism-based; settings: in vivo
Rattus norvegicus = test: Lymphopenia activity in Sprague-Dawley rat assessed as decrease in lymphocytes in peripheral blood at 3 mg/kg, po after 24 hrs by hematology analyzer; type: functional, organism-based
Blood [5] = test: Drug metabolism in Sprague-Dawley rat blood assessed as formation of 2-amino-2-(2-(4'-(2-(1-hydroxyethyl)oxazol-4-yl)biphenyl-4-yl)ethyl)propane-1,3-diol hydrochloride at 3 mg/kg, po measured at 0.08 to 48 hrs by LC-MS/MS analysis; type: ADME, organism-based; settings: in vivo
Homo sapiens = species on record: Homo sapiens; test: Selectivity ratio of EC50 for S1P3 receptor (unknown origin) to EC50 for S1P1 receptor (unknown origin)
Blood [6] = test: Drug metabolism in Sprague-Dawley rat blood assessed as formation of 2-amino-2-(2-(4'-(2-(2-hydroxypropyl)oxazol-4-yl)biphenyl-4-yl)ethyl)propane-1,3-diol hydrochloride at 3 mg/kg, po measured at 0.08 to 48 hrs by LC-MS/MS analysis; type: ADME, organism-based; settings: in vivo
Blood [7] = test: Drug level in Sprague-Dawley rat blood assessed as compound formation treated with SYL930 at 3 mg/kg, po measured at 0.08 to 48 hrs by LC-MS/MS analysis; type: ADME, organism-based; settings: in vivo
Blood [8] = test: Retention time of compound in Sprague-Dawley rat blood treated with SYL930 at 3 mg/kg, po by LC-MS/MS analysis; type: ADME, organism-based; settings: in vivo

EC50 [1] [nM] | EC50 [2] [nM] | Drug metabolism (Blood [3]) | Retention_time (Blood [4]) [min] | Drug metabolism (Blood [5]) | Ratio EC50 (Homo sapiens) | Drug metabolism (Blood [6]) | Drug metabolism (Blood [7]) | Retention_time (Blood [8]) [min] | Compound | Activity (Rattus norvegicus)
> 10000 | > 10000 | metabolite_detected | 6.6 |  |  |  |  |  | CC(O)c1nc(-c2ccc(-c3ccc(CCC(N)(CO)CO)cc3)cc2)co1.Cl (stereo unspecified) | Active
> 10000 | > 10000 |  |  | metabolite_detected |  |  |  |  | CCc1nc(-c2ccc(-c3ccc(CCC(N)(CO)CO)cc3)cc2)co1.Cl | Active
1610 | > 10000 |  |  |  | > 6 | metabolite_detected |  |  | CCCc1nc(-c2ccc(-c3ccc(CCC(N)(CO)CO)cc3)cc2)co1.Cl | Active
13.3 | 484 |  |  |  | 36 |  |  |  | CCCc1nc(-c2ccc(-c3ccc(CCC(N)(CO)COP(=O)(O)O)cc3)cc2)co1 (stereo unspecified) | 
1520 | > 10000 |  |  |  | > 6 |  | metabolite_detected | 13 | CC(O)Cc1nc(-c2ccc(-c3ccc(CCC(N)(CO)CO)cc3)cc2)co1.Cl (stereo unspecified) | Active
7 | 1060 |  |  |  | 151 |  |  |  | CCc1nc(-c2ccc(-c3ccc(CCC(N)(CO)COP(=O)(O)O)cc3)cc2)co1 (stereo unspecified) | 
